The values that follow come from US20140128431A1, “PHARMACEUTICAL COMPOSITION WITH IMPROVED BIOAVAILABILITY, SAFETY AND TOLERABILITY” (priority 2012, published 2014).

Some results are limits rather than exact numbers.

Series [1] can be described thus: Aqueous solubility of crystalline Compound A at physiological pHs. The class given is physicochemical. The conditions noted are these: aqueous media at physiological pHs (pH 1.5-8.0), aqueous buffer, crystalline form. The source says:
(§1) The compound is moderately permeable as determined with the Caco-2 assay value of 4.5×10-6 cm/s. Targeted high doses/frequency of dosing for this series of compounds, led to the categorization of Compound A as BCS class IV compound (low solubility/low permeability).

Series [2] in a line: Caco-2 assay (permeability). Conditions: human. The class given is in vitro ADME.
Source text: as §1
For orientation: Passage across Caco-2 layers is used to estimate intestinal permeability.

Usually solubility stands for the concentration that dissolves in the medium under given conditions. Lower therefore signals a poorly soluble substance. As usually defined, the Papp is a coefficient for how fast a substance crosses the barrier. A higher Papp goes with ready permeation. As for `COc1ccc(-c2cc(C(C)(C)C)c(OC)c3cc(-c4ccc(NS(C)(=O)=O)cc4)cnc23)c(=O)[nH]1` [Compound A, N-{4-[6-tert-Butyl-5-methoxy-8-(6-methoxy-2-oxo-1,2-dihydro-pyridin-3-yl)-quinolin-3-yl]-phenyl}-methanesulfonamide], the solubility in series [1] was less than 1 µg/mL. The compound further displayed a Papp in series [2] of 4.5 ×10⁻⁶ cm/s.
